Patent US7951359B2, “Compositions and methods for therapy or prevention of chemotherapy-induced neuropathy” (Merck Serono SA, priority 2004, dated 2011)
Read-outs that look alike come from different tables or passages of the source.

Tests used:
[1] = system: cisplatin induced neuropathy; type: in vivo, rat
Protocol: Electrophysiological monitoring in cisplatin-induced neuropathy model was carried out as described in Example 17. The objective was to assess the effect of co-administration with IL-6 in cisplatin-induced loss of fiber/nerve function.
(§1) Electrophysiological recordings were performed using a Neuromatic 2000M electromyograph (EMG) (Dantec, Les Ulis, France). Rats were anaesthetized by IP injection of 60 mg/kg ketamine chlorhydrate (Imalgene 500®, Rhône Merieux, Lyon, France). The normal body temperature was maintained around […] with a heating lamp and verified using a contact thermometer (Quick, Bioblock Scientific, Illkirch, France) placed on the tail surface.
(§2) Compound muscle action potential (CMAP) of M wave signal (or electrically evoked muscle potential) was recorded in the gastrocnemius muscle after stimulation of the sciatic nerve. M wave reflects the current developed during the action potential of muscle fibers. A reference electrode and an active needle were placed in the hind paw. A ground needle was inserted on the lower back of the rat. Sciatic nerve was stimulated with a single 0.2 ms pulse at supramaximal intensity. The […] of the motor wave was recorded and expressed in ms.
(§3) Sensitive nerve conduction velocity (SNCV) was also recorded. The tail skin electrodes were placed as follows: a reference needle inserted at the base of the tail and an anode needle placed 30 mm away from the reference needle toward the extremity of the tail. A ground needle electrode was inserted between the anode and reference needles. The caudal nerve was stimulated with a series of 20 pulses (for 0.2 ms) at an intensity of 12.8 mA. The velocity was expressed in m/s.
(§4) H-wave reflex was recorded in the hind footpad muscle after stimulation of the sciatic nerve. A reference electrode and a ground needle were placed on the lower back of the rat. The sciatic nerve was stimulated with a single 0.2 ms pulse at supramaximal intensity. The amplitude (mV) of H wave and the proportion of animal lacking H wave response were the parameters studied.

[2] = system: cisplatin induced neuropathy; type: in vivo, rat; remark: listed apart in the source
Protocol: The drug was diluted in 0.9% sterile aqueous solution of sodium chloride.
4-MC was diluted in 0.9% sterile aqueous solution of sodium chloride and injected daily via IP route from day 23 to the end of the experiment.
Electrophysiological tests described in Example 17, were carried out in parallel to the behavioral tests (described in the preceding example) in cisplatin-established neuropathy model. The objective was to assess the therapeutic effect of IL-6 in cisplatin-induced loss of fiber/nerve function.
as §1, §3, §4

[3] = system: cisplatin induced neuropathy; assay: Morphometric analysis, therapeutic treatment of established cisplatin neuropathy; type: in vivo, rat; conditions: for proportion of degenerated fibers versus control: p≦0.05
Excerpt: The number of degenerated and non-degenerated fibers on the entire surface of each nerve section was counted by an operator in a blinded fashion. All the results (except the data expressed as ratio value) were reported as percentage of changes in reference to the control value.

[4] = system: vincristine induced neuropathy; assay: Hot plate test in vincristine-treated rats; type: in vivo, rat
Protocol: The rat was placed inside a glass cylinder of 17 cm height and 21 cm diameter on a heating-plate maintained at 52° C. (Medite OTS 40, Microm, Francheville, Rhône, France). The animal behavior was observed, particularly the licking of a foot and the adjusted leap. The latency before licking a foot or before jumping to escape the heat (adjusted leap) was recorded. The time needed to feel the thermal pain is related to the thermal sensitivity and tends to increase when thermal sensitivity is altered.

[5] = system: vincristine induced neuropathy; assay: Electromyography (EMG) in vincristine-treated rats; type: in vivo, rat
Protocol: In parallel to behavioral tests, electrophysiological test as described in Example 17, were carried out to evaluate fiber/nerve function in vincristine-administered rats vis-à-vis rats co-administrated with IL-6.
as §1, §2, §3, §4

[6] = system: vincristine induced neuropathy; assay: Hindpaw skin biopsy, density of dermal nerve fibers in vincristine-treated rats; type: in vivo, rat; conditions: IL-6 10 μg/kg
Protocol: A 5-10 mm diameter area of skin was punch-biopsied from the hindpaw. Skin samples were immediately fixed overnight in paraformaldehyde at 4° C., incubated (overnight) in 30% sucrose in 0.1 M PBS for cryoprotection, embedded in OCT and frozen at −80° C. until cryocut. 50 μm-thick cryosections were then cut vertical to the skin surface with a cryostat. Free-floating sections were incubated for 7 days in a bath of rabbit anti-protein gene product 9.5 (1:10000; Ultraclone, Isle of Man, UK) at 4° C. The sections were then processed to reveal immunoreactivity according to the ABC peroxidase method. Briefly, they were incubated in for 1 hr with biotinylated anti-goat antibody (1:200), then 30 min in the avidin biotinylated complex at room temperature. Peroxidase activity was visualized using DAB system. Sections were then counterstained with eosin or hematoxylin. Sections were dehydrated, cleared with bioclear and mounted on eukitt. The number of dermal nerves of 3 microscope fields was counted manually under 40 magnification view.

[7] = system: taxol induced neuropathy; assay: Electrophysiological monitoring in taxol induced neuropathy, co-administration; type: in vivo, rat
Protocol: The aim of the following experiment was to investigate the potential neuroprotective effect of IL6 in an additional model of chemotherapeutic induced neuropathy mediated by taxol. The potential preventive effect of IL-6 co-administration was tested. Administration of IL-6 was initiated together with taxol administration. The doses of IL-6 of 3 and 10 μg/kg were administered daily or in the case 10 μg/kg also only 3 times per week.
Females 10 weeks old aged Dark Agouti rats were used, 12 animals per group were included as following
The taxol was diluted in a solution of cremophor/ethanol/dextrose 5% and administered twice a week during 4 weeks.
4-MC and test compounds treatment was initiated the first day of intoxication and was stopped at the end of the study.
The study was performed on 8 weeks (1 week for the baseline, 4 weeks for the taxol intoxication and 3 weeks of recovery).
Control, taxol, and taxol-IL-6 co-administered group of rats at the indicated doses were subjected to electrophysiological monitoring to assess the effect of IL-6 in taxol-induced loss of fiber/nerve function.
as §3
H-wave reflex was recorded in the hind footpad muscle after stimulation of the sciatic nerve. […] The sciatic nerve was stimulated with a single 0.2 ms pulse at supramaximal intensity. The amplitude (mV) of H wave and the proportion of animal lacking H wave response were the parameters studied.

[8] = system: Hybridoma growth factor (HGF) activity; assay: Hybridoma growth factor (HGF) activity of IL-6; type: cell-based; conditions: based on Hybridoma growth factor (HGF) activity
Excerpt: Recombinant human IL-6 (r-hlL-6) is produced in genetically engineered Chinese Hamster Ovary (CHO) cells. The production process begins with the growth and expansion of cells from a working cell bank (WCB) and continues under conditions where r-hlL-6 is secreted into the culture medium. The r-hlL-6 was harvested and purified from culture medium of the engineered cells.

[9] = rodents; cited from earlier work
[10] = cisplatin alone, 3 weeks after cessation of cisplatin

Q: With `N.N.[Cl][Pt][Cl]` [cisplatin, Cis-dichlorodiamine platinum] as the compound, how does the “SNCV versus non-treated control” value ([1]; rat, in vivo) read?
A: The value was “significantly slow”.

Q: What about the “reduction of H wave amplitude” value ([1]; rat, in vivo) of the same compound?
A: Its value is “about 80%”.

Q: And the “SNCV versus untreated control” value ([2]; rat, in vivo)?
A: The value was “significantly slower”.

Q: What about the “loss in H wave signal amplitude” value ([2]; rat, in vivo) of the same compound?
A: The value was “about 70%”.

Q: And the “proportion of non-degenerated myelinated fibers versus control” value [3, 10]?
A: Its value is “lower”.

Q: And the “proportion of degenerated fibers versus control” value [3, 10]?
A: Its value is “significantly higher”.

Q: And the “proportion of non-degenerated myelinated fibers versus control” value ([3]; cisplatin alone, day 23)?
A: Its value is “lower”.

Q: What about the “proportion of degenerated fibers versus control” value ([3]; cisplatin alone, day 23) of the same compound?
A: Its value is “significant greater proportion of degenerated fibers”.

Q: What about the myelin area ([3]; cisplatin alone, day 44, p>0.05) of the same compound?
A: The myelin area was “slight but not significant reduction”.

Q: And the “overall size of myelin versus control” value ([3]; cisplatin alone, up to day 23, not significant (p>0.05))?
A: The value was “slightly reduced”.

Q: For “IL-6: Recombinant human IL-6 produced in genetically engineered Chinese Hamster Ovary (CHO) cells”, which “prevention of vincristine-induced nociception loss (hot plate)” value ([4]; IL-6 0.3, 1, 3, 10 μg/kg SC daily, 5 weeks) is on record?
A: Its value is “significantly prevented nociception”.

Q: And the “protection from vincristine-induced nociception loss compared with 4-MC” value ([4]; IL-6 0.3-10 μg/kg SC vs 4-MC 10 μg/kg IP)?
A: Its value is “confers better protection that 4-MC”.

Q: What about the CMAP latency time ([5]; IL-6 10 μg/kg SC daily with vincristine) of the same compound?
A: Its CMAP latency time is “fully preserved their CMAP latency time”.

Q: What about the “vincristine-induced CMAP latency” value ([5]; IL-6 0.3-10 μg/kg SC daily, p<0.05) of the same compound?
A: Its value is “reduced”.

Q: What about the “SNCV in vincristine treated animals” value ([5]; IL-6 1-10 μg/kg SC daily) of the same compound?
A: Its value is “full restoration of SNCV”.

Q: And the “H wave amplitude preservation” value ([5]; IL-6 1-10 μg/kg SC daily with vincristine)?
A: The value was “fully preserved the H wave amplitude”.

Q: What about the “protection against loss of M wave amplitude, duration” value ([5]; IL-6 3-10 μg/kg SC daily with vincristine) of the same compound?
A: Its value is “stable throughout the experiment”.

Q: And the “prevention of vincristine-induced loss of M wave amplitude” value ([5]; IL-6 all doses tested (0.3-10 μg/kg SC daily))?
A: The value was “prevent vincristine-induced loss of M wave amplitude”.

Q: What about the “protection against vincristine-induced fiber/nerve function loss compared with 4-MC” value ([5]; IL-6 vs 4-MC 10 μg/kg IP) of the same compound?
A: The value was “confers better protection that 4-MC”.

Q: What about the “dermal fiber loss by vincristine” value [6] of the same compound?
A: The value was “fully prevented”.

Q: And the “loss of H wave amplitude by cisplatin” value ([1]; IL-6 10 μg/kg SC daily, throughout the experiment)?
A: Its value is “fully prevented the loss of H wave amplitude”.

Q: What about the “loss of H wave amplitude by cisplatin” value ([1]; IL-6 0.3, 1, 3, 10 μg/kg SC daily) of the same compound?
A: Its value is “reduce/prevent the loss of H wave amplitude”.

Q: And the “SNCV in cisplatin treated rats” value ([1]; IL-6, especially at 3 and 10 μg/kg, after 5 weeks)?
A: The value was “improve SNCV”.

Q: What about the “prevention of cisplatin-induced loss of fiber/nerve function compared with 4-MC” value ([1]; IL-6 vs 4-MC 10 μg/kg IP) of the same compound?
A: The value was “more effective in preventing cisplatin-induced loss of fiber/nerve function than 4-MC”.

Q: And the “SNCV in cisplatin-treated animals” value ([2]; IL-6 3 μg/kg, after 1 week of treatment, p≦0.01)?
A: The value was “improved the SNCV”.

Q: And the “loss of H wave amplitude” value ([2]; IL-6 3 and 10 μg/kg SC daily from day 23, p≦0.05)?
A: Its value is “reversed the loss of H wave amplitude”.

Q: What about the “H wave amplitude loss recovered” value ([2]; IL-6, 1 week after initiation of treatment) of the same compound?
A: Its value is “about 50%”.

Q: And the “H wave amplitude recovery” value ([2]; IL-6, 2 weeks of treatment)?
A: The value was “full recovery”.

Q: And the “curing/ameliorating loss of fiber/nerve function compared with 4-MC” value ([2]; IL-6 vs 4-MC)?
A: The value was “more efficient than 4-MC”.

Q: And the “cisplatin-induced myelin sheath thinning” value ([3]; IL-6 10 μg/kg)?
A: Its value is “appeared to reverse cisplatin-induced myelin sheath thinning”.

Q: What about the “percentage of degenerated fibers, significance” value ([3]; IL-6 10 μg/kg) of the same compound?
A: The value was “significant effect”.

Q: What about the large/small fibers ratio ([3]; IL-6 treatment) of the same compound?
A: Its large/small fibers ratio is “slight increase”.

Q: And the “percentage of degenerated fibers” value ([3]; IL-6 treatment (3 and 10 μg/kg))?
A: The value was “significantly reduced the percentage of degenerated fibers”.

Q: What about the “restoring myelin and fiber degeneration compared with 4-MC” value ([3]; IL-6 vs 4-MC) of the same compound?
A: The value was “more efficient than 4-MC”.

Q: And the “H wave latency under taxol” value ([7]; IL-6 3 or 10 μg/kg daily or 10 μg/kg 3 times per week, sc)?
A: Its value is “prevent/reduce H wave latency”.

Q: And the “alterations in SNCV by taxol” value ([7]; IL-6 3 or 10 μg/kg daily or 3 times per week)?
A: Its value is “prevent alterations in SNCV”.

Q: And the “reduction in H wave amplitude by taxol” value ([7]; IL-6 at all the dosages tested, throughout the experiment)?
A: Its value is “significantly prevented the reduction in H wave amplitude”.

Q: And the “preventive effects compared with 4-MC co-administration” value ([7]; IL-6 vs 4-MC)?
A: Its value is “more significant than those of 4-MC co-administration”.

Q: What about the potency [8] of the same compound?
A: Its potency is 23.3×10^6 IU/ml.

Q: And the “active dose as thrombopoietic factor” value [9]?
A: The value was “above 500 μg/kg”.
